From patent US7326721B2 (Hypnion, Inc., priority 2003, dated 2008)
“And” between values parts separate entries of the source, which are not always exact repeats. Equal entries are not always repeated. Where two headings read alike, the source gives them in different places.

Experiments:
adult male Wistar rats = test: SCORE-2000 sleep-wakefulness, locomotor activity and body temperature monitoring; type: in vivo, rat
male Wistar rats = type: in vivo
Procedure: The Irwin screen can provide useful information on potential side effects of compounds on general physiological and behavioural functions. The screen was conducted by administering the test compounds orally in 0.25% aqueous methylcellulose using male Wistar rats, a frequently used species in such studies and for which background data are readily available.
The Irwin screen tests for numerous parameters in animals that have been administered the test compound. For example, the screen can include: in-cage effects, e.g., dispersion, respiratory rate, locomotor activity, restlessness, fighting, alertness, apathy, and exophthalmus; in-arena effects, e.g., transfer arousal, spatial locomotion, ptosis, startle, tail elevation, piloerection, touch escape, positional passivity, catalepsy, tighting reflex, visual placing, grip strength, pinna, corneal, pain response, and wire manoeuvre; parameters observed in handling, e.g., cyanosis, cutaneous blood flow, hypothermia, body tone, pupil size, light-pupil response, lacrimation, grooming, red staining, salivation, and provoked biting; general scores e.g., fearfulness, irritability, abnormal gait, abnormal body carriage, tremors, twitches, convulsions, bizarre behaviour, writhing, vocalisation, diarrhoea, number of defaecations, number of urinations, moribund, lethality, and abnormalities detected. Further details can be found in Irwin, S; Comprehensive observational assessment: I a. A systematic, quantitative procedure for assessing the behavioural and physiological state of the mouse.
Irwin screening of the disclosed sleep-inducing agents was performed by Covance (Princeton, N.J.) according to Irwin, above; Covance Standard Operating Procedure (current revision of SOP PHARM 8.10); relevant regulatory authority guidelines ICH (International Committee for Harmonization) Guideline (Topic S7A; CPMP/ICH/539/00) on Safety Pharmacology Studies for human pharmaceuticals (November 2000); and all procedures carried out on live animals were subject to the provisions of United Kingdom Law, in particular the Animals (Scientific Procedures) Act, 1986. which obliges all UK laboratories to maintain a local ethical review process to ensure that all animal use in the establishment is carefully considered and justified; that proper account is taken of all possibilities for reduction, refinement or replacement and that high standards of accommodation and care are achieved.
All test compound formulations were prepared on the day of dosing by Covance Harrogate Dispensary. The test compounds were formulated in 0.25% aqueous methylcellulose at the highest concentration required. Lower doses were obtained by serial dilution of the highest concentration using 0.25% aqueous methylcellulose. Dose levels are expressed in terms of the amount of test compound administered without regard to purity or active content. All formulations were stored at room temperature (nominally 10 to 30° C.) in sealed containers and protected from light.
An adequate number of male Wistar (Crl:WI(Glx/BRL/Han) BR:WH) rats were obtained from Charles River Ltd. (Margate, Kent, United Kingdom). The rats were approximately 5 weeks of age and weighed between 150 and 170 g on arrival. The animals were housed in groups of no more than six in polypropylene cages (33×15×13 cm) or (45×28×20 cm) with solid floors and Grade 10 woodflakes (Datesand Ltd., Cheshire, United Kingdom) as bedding. The cages were cleaned and dried before use. Aspen chew blocks were placed within the cages as a form of environmental enrichment. Routinely, holding rooms were maintained within acceptable limits for temperature and relative humidity (nominally 19 to 25° C. and 40% to 70%, respectively). These rooms were illuminated by fluorescent light for 12 hours out of each 24 hour cycle and designed to receive at least 15 fresh air changes per hour. […]

H1 histamine receptor = molecular target: T1, H1 histamine receptor (Bos taurus, UniProt P30546); test: Histamine H1 competitive binding assay ([3H]pyrilamine); set-up: species or system bovine; settings: read-out: Ki H1
T1 construct: the receptors were obtained from bovine cerebellar membrane tissue; from tissue; host or cells: bovine cerebellar membranes
T1 sequence (P30546 whole entry): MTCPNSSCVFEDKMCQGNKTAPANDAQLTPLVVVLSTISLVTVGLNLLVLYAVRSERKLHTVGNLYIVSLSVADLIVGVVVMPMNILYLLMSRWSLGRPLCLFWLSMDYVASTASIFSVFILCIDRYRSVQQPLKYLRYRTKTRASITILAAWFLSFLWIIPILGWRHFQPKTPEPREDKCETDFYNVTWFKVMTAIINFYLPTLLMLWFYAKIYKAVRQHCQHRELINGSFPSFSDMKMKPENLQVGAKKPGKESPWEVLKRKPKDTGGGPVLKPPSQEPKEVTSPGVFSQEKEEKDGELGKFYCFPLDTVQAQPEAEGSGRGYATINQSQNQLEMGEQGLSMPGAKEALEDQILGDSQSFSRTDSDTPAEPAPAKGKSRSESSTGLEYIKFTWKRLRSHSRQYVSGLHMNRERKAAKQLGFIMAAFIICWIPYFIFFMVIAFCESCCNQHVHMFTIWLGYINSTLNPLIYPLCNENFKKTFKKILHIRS

hERG = hERG (Homo sapiens, UniProt Q12809)
Sequence of hERG (Q12809 whole entry): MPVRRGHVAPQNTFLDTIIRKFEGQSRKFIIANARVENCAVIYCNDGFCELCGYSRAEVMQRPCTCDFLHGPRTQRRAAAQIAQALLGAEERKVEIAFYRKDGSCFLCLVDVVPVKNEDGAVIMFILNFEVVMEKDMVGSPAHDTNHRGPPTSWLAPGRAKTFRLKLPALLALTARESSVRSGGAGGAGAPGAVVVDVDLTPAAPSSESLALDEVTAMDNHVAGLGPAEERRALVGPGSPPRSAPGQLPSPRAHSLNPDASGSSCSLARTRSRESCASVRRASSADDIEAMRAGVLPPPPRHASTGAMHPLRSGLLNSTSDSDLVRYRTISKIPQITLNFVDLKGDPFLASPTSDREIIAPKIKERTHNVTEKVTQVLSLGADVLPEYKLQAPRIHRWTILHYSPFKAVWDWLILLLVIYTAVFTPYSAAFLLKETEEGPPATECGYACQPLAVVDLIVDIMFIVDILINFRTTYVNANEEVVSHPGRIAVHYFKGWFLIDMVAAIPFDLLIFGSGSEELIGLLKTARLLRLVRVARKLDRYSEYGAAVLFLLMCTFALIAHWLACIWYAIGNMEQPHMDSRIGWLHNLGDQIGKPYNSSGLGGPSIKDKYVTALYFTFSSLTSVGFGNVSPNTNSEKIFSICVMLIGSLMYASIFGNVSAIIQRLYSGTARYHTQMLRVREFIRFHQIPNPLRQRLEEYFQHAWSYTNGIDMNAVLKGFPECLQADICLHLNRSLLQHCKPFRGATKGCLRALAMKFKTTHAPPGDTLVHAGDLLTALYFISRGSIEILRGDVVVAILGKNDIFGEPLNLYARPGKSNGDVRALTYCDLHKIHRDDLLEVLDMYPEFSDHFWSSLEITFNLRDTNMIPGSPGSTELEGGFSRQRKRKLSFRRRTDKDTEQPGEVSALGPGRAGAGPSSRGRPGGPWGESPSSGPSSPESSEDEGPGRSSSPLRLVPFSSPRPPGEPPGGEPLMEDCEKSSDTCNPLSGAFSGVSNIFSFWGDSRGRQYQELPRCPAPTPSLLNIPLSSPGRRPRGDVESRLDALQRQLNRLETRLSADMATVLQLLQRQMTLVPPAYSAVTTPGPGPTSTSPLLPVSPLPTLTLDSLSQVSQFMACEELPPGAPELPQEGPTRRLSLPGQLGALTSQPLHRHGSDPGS

M1 muscarinic receptor = molecular target: T2, M1 muscarinic receptor (Homo sapiens, UniProt P11229); test: Muscarinic M1 binding assay ([3H]-scopolamine, N-methyl chloride); set-up: purchased PerkinElmer, Inc., Wellesley, Mass; host or cells: CHO cells; settings: read-out: Ki M1
T2 sequence (P11229 1-460): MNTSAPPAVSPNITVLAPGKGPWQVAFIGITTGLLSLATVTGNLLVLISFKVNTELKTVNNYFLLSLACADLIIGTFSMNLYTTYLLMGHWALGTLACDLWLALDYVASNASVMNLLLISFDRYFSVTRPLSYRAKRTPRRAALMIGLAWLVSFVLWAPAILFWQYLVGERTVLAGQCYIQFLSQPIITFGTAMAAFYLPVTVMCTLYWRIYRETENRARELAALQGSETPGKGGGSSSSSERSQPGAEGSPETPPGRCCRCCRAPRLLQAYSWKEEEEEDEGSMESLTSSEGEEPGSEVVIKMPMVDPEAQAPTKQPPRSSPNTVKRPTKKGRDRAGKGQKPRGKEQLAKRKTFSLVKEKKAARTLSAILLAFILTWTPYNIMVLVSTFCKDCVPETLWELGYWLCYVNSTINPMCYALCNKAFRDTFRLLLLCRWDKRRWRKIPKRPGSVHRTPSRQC

M2 muscarinic receptor = molecular target: T3, M2 muscarinic receptor (Homo sapiens, UniProt P08172); test: Muscarinic M2 binding assay; set-up: purchased PerkinElmer, Inc., Wellesley, Mass; host or cells: CHO cells; settings: read-out: Ki M2
T3 sequence (P08172 1-466): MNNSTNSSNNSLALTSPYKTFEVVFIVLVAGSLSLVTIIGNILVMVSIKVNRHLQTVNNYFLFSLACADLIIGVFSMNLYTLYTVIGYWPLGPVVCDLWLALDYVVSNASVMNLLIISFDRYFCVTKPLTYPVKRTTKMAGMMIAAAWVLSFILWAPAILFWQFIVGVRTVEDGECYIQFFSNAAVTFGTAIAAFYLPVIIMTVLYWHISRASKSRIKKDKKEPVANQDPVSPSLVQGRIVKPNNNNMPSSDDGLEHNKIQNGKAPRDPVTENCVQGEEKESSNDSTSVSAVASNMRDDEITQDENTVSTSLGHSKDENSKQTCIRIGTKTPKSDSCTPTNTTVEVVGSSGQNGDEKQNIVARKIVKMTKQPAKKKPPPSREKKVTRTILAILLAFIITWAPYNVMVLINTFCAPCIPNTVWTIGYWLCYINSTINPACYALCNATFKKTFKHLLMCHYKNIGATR

M3 muscarinic receptor = M3 muscarinic receptor (Homo sapiens, UniProt P20309); test: Muscarinic M3 binding assay; set-up: purchased PerkinElmer, Inc., Wellesley, Mass; host or cells: CHO cells; settings: read-out: Ki M3
Sequence of M3 muscarinic receptor (P20309 whole entry): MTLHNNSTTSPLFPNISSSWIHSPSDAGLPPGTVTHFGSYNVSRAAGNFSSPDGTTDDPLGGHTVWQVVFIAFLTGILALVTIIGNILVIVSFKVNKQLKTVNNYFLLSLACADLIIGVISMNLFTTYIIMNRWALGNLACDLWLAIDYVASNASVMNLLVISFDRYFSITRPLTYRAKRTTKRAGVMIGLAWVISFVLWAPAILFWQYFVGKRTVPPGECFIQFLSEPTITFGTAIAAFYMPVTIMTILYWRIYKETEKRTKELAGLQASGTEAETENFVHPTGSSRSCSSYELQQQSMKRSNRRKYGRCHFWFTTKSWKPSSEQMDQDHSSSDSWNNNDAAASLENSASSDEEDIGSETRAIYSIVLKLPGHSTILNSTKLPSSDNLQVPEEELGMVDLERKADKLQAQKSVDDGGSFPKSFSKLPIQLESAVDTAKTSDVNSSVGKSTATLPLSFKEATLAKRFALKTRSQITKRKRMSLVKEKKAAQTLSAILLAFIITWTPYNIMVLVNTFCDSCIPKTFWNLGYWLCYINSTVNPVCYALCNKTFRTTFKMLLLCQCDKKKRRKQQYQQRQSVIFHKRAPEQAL

SMILES	LUSB (adult male Wistar rats; dose 3 mg/kg oral at CT-18)	NREM (adult male Wistar rats; dose 3 mg/kg oral at CT-18)	LUSB (adult male Wistar rats; dose 10 mg/kg oral at CT-18)	NREM (adult male Wistar rats; dose 10 mg/kg oral at CT-18)	LUSB (adult male Wistar rats; dose 30 mg/kg oral at CT-18)	NREM (adult male Wistar rats; dose 30 mg/kg oral at CT-18)	Irwin at mg/kg dose (male Wistar rats; rat, in vivo)	Ki (H1 histamine receptor)	hERG at micromolar (% blocking of the hERG channel) (hERG; human, 10 µM, pH 7.4)	Ki (M1 muscarinic receptor)	Ki (M2 muscarinic receptor)	Ki (M3 muscarinic receptor)	further results
COc1ccc2c(c1)COc1ccccc1C2=C1CCN(CC(C)(C)C(=O)O)CC1 [Compound 50a]	4.8 min	12.7 min	9.3 min	32.6 min	11.2 min	41.9 min	clean	0.0272 µM	9.7% @ 10	> 10 µM	> 10 µM	> 10 µM	–
COc1ccc2c(c1)COc1ccccc1C2=C1CCN(CC2(C(=O)O)CC2)CC1 [Compound 50b]	6.9 min	10.7 min	8.1 min	24.2 min	14.3 min	51.9 min	–	0.0698 µM	27.1% @ 10	> 10 µM	> 10 µM	> 10 µM	–
CC(C)(CN1CCC(=C2c3ccc(Cl)cc3COc3ccccc32)CC1)C(=O)O [Compound 51a]	8.8 min	32.1 min	18.2 min	60.3 min	6.3 min	49.3 min	–	0.0264 µM	–	> 10 µM	> 10 µM	> 10 µM	Irwin at mg/kg dose (male Wistar rats; 10 mg/kg oral): clean; Irwin at mg/kg dose (male Wistar rats; 30 mg/kg oral): some side effects; Irwin at mg/kg dose (male Wistar rats; 100 mg/kg oral): lethality; hERG at micromolar (% blocking of the hERG channel) (hERG; human, pH 7.4): 40.6%
O=C(O)C1(CN2CCC(=C3c4ccc(Cl)cc4COc4ccccc43)CC2)CC1 [Compound 51b]	8.4 min	34.7 min	8.3 min	45 min	128 min	60.4 min	–	0.072 µM	23% @ 10	> 10 µM	> 10 µM	> 10 µM	–
O=C(O)C1(CCN2CCC(=C3c4ccc(Cl)cc4COc4ccccc43)CC2)CC1 [Compound 59b]	–	–	12.8 min	42.4 min	6.1 min	23.1 min	clean	0.0667 µM	28% @ 10	> 10 µM	> 10 µM	> 10 µM	–
CC(C)(CCN1CCC(=C2c3ccc(F)cc3COc3ccccc32)CC1)C(=O)O [Compound 61a]	3.1 min	13.9 min	9.7 min	24 min	10.1 min	45.8 min	–	0.182 µM	12.6% @ 10	> 10 µM	> 10 µM	> 10 µM	–
O=C(O)C1(CCN2CCC(=C3c4ccc(F)cc4COc4ccccc43)CC2)CC1 [Compound 61b]	3.6 min	11.3 min	14.6 min	34.8 min	9.7 min	57.4 min	–	0.0122 µM	85.9% @ 10	0.569 µM	3.09 µM	> 10 µM	–
COc1ccc2c(c1)COc1ccccc1C2=C1CCN(CCC(C)(C)C(=O)O)CC1 [Compound 62a]	–	–	7.4 min	23.2 min	9.1 min	25.2 min	–	0.128 µM	13.6% @ 10	> 10 µM	> 10 µM	> 10 µM	–
O=C(O)C1(CN2CCC(=C3c4ccccc4COc4ccccc43)CC2)CC1 [Compound 69b]	5.9 min	14.9 min	6.2 min	44.3 min	14 min	41.6 min	clean	0.0549 µM	12.6% @ 10	> 10 µM	> 10 µM	> 10 µM	LUSB (adult male Wistar rats; dose 15 mg/kg oral at CT-18): 14.4 min; NREM (adult male Wistar rats; dose 15 mg/kg oral at CT-18): 43.4 min; LUSB (adult male Wistar rats; dose 20 mg/kg oral at CT-18): 11.6 min; NREM (adult male Wistar rats; dose 20 mg/kg oral at CT-18): 39.4 min
CC(C)(CCN1CCC(=C2c3ccccc3COc3ccccc32)CC1)C(=O)O [Compound 70a]	–	–	3.7 min	13.2 min	6 min	33.6 min	clean	0.0368 µM	–	0.811 µM	3.31 µM and 1.36 µM	–	LUSB (adult male Wistar rats; dose 45 mg/kg oral at CT-18): 12.1 min; NREM (adult male Wistar rats; dose 45 mg/kg oral at CT-18): 29.3 min; hERG at micromolar (% blocking of the hERG channel) (hERG; human, 1 µM, pH 7.4): 5.1% @ 1
O=C(O)C1(CCN2CCC(=C3c4ccccc4COc4ccccc43)CC2)CC1 [Compound 70b]	–	–	8.3 min	–	–	–	–	–	–	–	–	–	Irwin at mg/kg dose (male Wistar rats; 10 mg/kg oral): clean; Irwin at mg/kg dose (male Wistar rats; 30 mg/kg oral): clean; Irwin at mg/kg dose (male Wistar rats; 100 mg/kg oral): some side effects; hERG at micromolar (% blocking of the hERG channel) (hERG; concentration not given): 50.2%
